Measurements: the NIST ThermoML archive (doi:10.1021/je300843n)
± gives the expanded uncertainty stated by the source.

Conditions: Liquid, Ebulliometric method (Recirculating still)

C [methane]
Conditions	vapor or sublimation pressure [kPa]
126.01 K	286.85 ± 1.7
127.99 K	324.94 ± 1.8
130.02 K	367.76 ± 1.9
132.01 K	413.65 ± 2
133.98 K	463.11 ± 2.1
135.99 K	517.9 ± 2.3
137.97 K	576.38 ± 2.5
140.01 K	641.51 ± 2.6
